Drawing on PubChem BioAssay AID1288 (Columbia University Molecular Screening Center, 2008), this text covers inhibition for 87 molecules.

The structures appear in SMILES notation. Activity calls are given as the source filed them. The rule behind the calls is not given here.

This assay in a line: inhibitors of TNFa-induced E-selectin expression, confirmation, imaging, retest plus dose response, cell count (AID 1288).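 Note: 0% = stimulated vehicle wells and 100% = unstimulated vehicle wells.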 The note with it: human endothelial cells, TNFa-induced E-selectin, imaging; at 2 µM; stronger effect = higher value.

Usually inhibition stands for the relative decrease from the control value, in per cent. With `COc1ccc2nc(SCc3nc(N)nc(Nc4ccccc4)n3)[nH]c2c1`, the inhibition was 6.2% (inactive).
Turning to `Cc1nnc(SCC(=O)N2CC(=O)Nc3ccccc32)n1C`, the inhibition is 41% (inactive).
As for `N#CCc1ccc(NS(=O)(=O)c2cccs2)cc1`, the inhibition is 7.74% (inactive).
Regarding `NC(=O)C1CCCN(C(=S)Nc2cccc3ccccc23)C1` (configuration not stated), the inhibition is 9.37% (inactive).
On to `CCOC(=O)c1c(C)[nH]c(C(=O)OCCOc2ccccc2C)c1C`, for which the inhibition was 0.85% (inactive).
For `O=C(c1ccccc1)N1CCN(c2ccccc2F)CC1`, the inhibition was 9.93% (inactive).
Under `CS(=O)(=O)c1ccc(Cl)c(NC(=O)c2ccc3ccccc3c2)c1` stands 4.97% (inactive); under `CCN(CC)S(=O)(=O)c1ccc(NC(=O)CSc2nnc(-c3ccc(F)cc3)o2)cc1`, 1.25% (inactive); under `COc1cccc(/C=N/NC(=O)c2c(-c3ccccc3)noc2C)c1`, 4.18% (inactive).
For the molecule `COc1ccc(NC(=O)N(CCCN2CCOCC2)Cc2cccnc2)c(OC)c1`, the inhibition is 3.7% (inactive).
As for `N#CC(C#N)=C/C(C#N)=C(/N)N1CCN(c2ccc(Cl)cc2)CC1`, the inhibition is 6.82% (inactive).
`COc1cc(C2C(C#N)=C(N)Oc3c2oc(CO)cc3=O)cc(OC)c1OC` (configuration not stated): the inhibition was 10.9% (inactive).
For `O=C(COc1ccc(/C=N/NC(=O)C(=O)N2CCCCCC2)cc1)Nc1ccccc1Cl`, the inhibition was 8.09% (inactive).
With `O=C(Nc1nc(-c2ccccc2)c(-c2ccccc2)s1)c1ccc(S(=O)(=O)N(CCCl)CCCl)cc1`, the inhibition was -7.24% (inactive).
Regarding `COc1ccc(-c2cc(C)nc(SCc3cccc(C(=O)O)c3)n2)cc1`, the inhibition was 16.2% (inactive).
Under `COCCn1c(SCC(=O)c2ccc(Cl)cc2)nnc1C(C)C` stands -5.2% (inactive); under `CC(C)(C)c1cc(OC(=O)c2ccncc2)ccc1O`, 7.95% (inactive); under `CCOC(=O)Cc1c(C)nc2c(-c3ccccc3)c[nH]n2c1=O`, 0.71% (inactive).
Regarding `O=C(Nc1ccc(-c2nc3cccnc3s2)cc1)c1ccc(Br)o1`, the inhibition is 5.96% (inactive).
`CCOc1cc(-c2nn3cnnc3s2)cc(OCC)c1OCC`: the inhibition is 4.31% (inactive).
Under `COc1ccc(C(=O)NCCNC(C)=O)cc1S(=O)(=O)NCc1ccc(Cl)cc1` stands 14.8% (inactive); under `CC(Sc1nnc2c(n1)C1CCC2(C)C1(C)C)C(=O)Nc1ccccc1` (configuration not stated), 9.66% (inactive); under `COCCNC(=O)c1ccccc1NC(=O)c1cccc([N+](=O)[O-])c1C`, 0.34% (inactive).
To `COc1ccccc1C(=O)NCCN1CCN(C(=O)c2ccccc2OC)CC1` belongs 9.74% (inactive).
Consider `CN1CCN(S(=O)(=O)c2ccc(NC(=O)c3ccc(F)cc3)cc2)CC1`, for which the inhibition was 5.58% (inactive).
Under `CN(C)S(=O)(=O)c1cc(NC(=O)CSc2nn(-c3ccc(Cl)cc3)c(=S)s2)ccc1Cl` stands -2.75% (inactive); under `CCOc1ccc(C)cc1-n1nc2ccccc2n1`, 34.6% (inactive).
To `COc1ccc(C(=O)CN2C(=O)NC3(CCCc4ccccc43)C2=O)cc1OC` (configuration not stated) belongs 7.22% (inactive); to `O=C(c1ccccc1F)N1CCN(c2ccccc2F)CC1`, 27.8% (inactive).
`Cn1c(N)c(C(=O)COC(=O)CN2C(=O)c3ccccc3C2=O)c(=O)n(C)c1=O`: the inhibition is 17.5% (inactive).
For the molecule `Cc1oc(-c2cccs2)nc1CSCC(=O)N1CCC2(CC1)OCCO2`, the inhibition was 2.86% (inactive).
In the case of `Cc1cc(C(=O)CN2C(=O)NC(c3ccccc3)(c3ccccc3)C2=O)c(C)n1Cc1ccco1`, the inhibition is -3.9% (inactive).
Turning to `COc1ccc(NC(=O)c2cccnc2Cl)c(S(=O)(=O)N2CCOCC2)c1`, the inhibition was 6.27% (inactive).
Under `Fc1ccccc1SCc1nnc(-c2ccccc2Br)o1` stands 9.24% (inactive).
For `CCS(=O)(=O)Nc1ccc(-c2cc(-c3ccccc3)c3cc(C)ccc3n2)cc1`, the inhibition is 0.49% (inactive).
To `CCOc1ccc(-n2nc(C(=O)N3CCN(CC)CC3)c3ccccc3c2=O)cc1` belongs 18.4% (inactive); to `CCOC(=O)C(C)Oc1cccc2c(=O)n(CC(=O)Nc3cccc(OC)c3)ccc12` (configuration not stated), 22.4% (inactive).
Turning to `COc1ccc(OCC(=O)N2CCN(Cc3c[nH]c4ccccc34)CC2)cc1`, the inhibition is -1.94% (inactive).
As to `O=C(Nc1ccccc1C(=O)N/N=C/c1ccco1)c1ccc(F)cc1`, the inhibition is 10.5% (inactive).
To `CN=C(C)C1=C(O)C(C(=O)OC)C(C)(C)CC1=O` (configuration not stated) belongs -0.09% (inactive); to `CC(=O)c1ccc(NC(=O)Nc2ccc([N+](=O)[O-])cc2C)cc1`, 48% (inactive).
Turning to `COc1cc(C2C(C#N)=C(N)Oc3cc(C)n(CCc4ccccc4)c(=O)c32)cc2c1OCO2` (configuration not stated), the inhibition was 4.3% (inactive).
Regarding `O=C(Oc1ccccc1N1C(=O)C2CC=CCC2C1=O)c1ccc(Br)cc1` (configuration not stated), the inhibition is 5.75% (inactive).
Take `O=c1cc(-c2ccccc2)c2ccccc2[nH]1`: the inhibition was 35% (inactive).
For `Nc1ccc(Br)cc1-c1nc2ccccc2[nH]c1=O`, the inhibition was -8.67% (inactive).
Under `COc1ccc(OC)c(S(=O)(=O)N(C)CC(=O)Nc2ccc3c(c2)OCO3)c1` stands 5.06% (inactive); under `COc1cccc(/C=C/C(=O)OCC(=O)Nc2ccc(Cl)c(S(=O)(=O)N(C)C)c2)c1`, 2.19% (inactive); under `COc1ccc(-n2c(C)cc(C(=O)COc3ccc(C)nc3[N+](=O)[O-])c2C)cc1`, 31.4% (inactive).
For the molecule `O=C(/C=C/c1ccc2c(c1)OCO2)Nc1nc2ccccc2s1`, the inhibition was 16.2% (inactive).
On to `CC(=O)Nc1ccc(OCCF)cc1`, for which the inhibition was 0.31% (inactive).
Regarding `CC(C)(C)OC(=O)NNC(=O)NC12CC3CC(CC(C3)C1)C2`, the inhibition was 3.2% (inactive).
Turning to `CCC(C)Nc1nc(OC(C(F)(F)F)C(F)(F)F)nc(OC(C(F)(F)F)C(F)(F)F)n1` (configuration not stated), the inhibition was 9.28% (inactive).
Under `Cc1ccc2oc(Nc3nc(-c4ccccc4)cc(=O)[nH]3)nc2c1` stands 10.7% (inactive).
Under `COc1ccc(NC(=O)c2c(C)oc3c2CCCC3)cc1` stands 3.37% (inactive); under `Brc1ccc(C2=CC(c3cccs3)n3ncnc3N2)cc1` (configuration not stated), 13.5% (inactive); under `C/C=C/Cn1c(N2CCCCCC2)nc2c1c(=O)[nH]c(=O)n2C`, 17.1% (inactive).
Turning to `Cc1ccc(-n2c(SCC(=O)Nc3ccc4c(c3)OCCO4)nnc2-c2ccco2)cc1`, the inhibition was 5.17% (inactive).
Take `CC(C)c1c(O)cc(-c2ccncc2)n(-c2ccc(Cl)cc2)c1=O`: the inhibition is 3.17% (inactive).
Regarding `CC(=O)c1cccc(NS(=O)(=O)N2CCCCC2)c1`, the inhibition is -4.42% (inactive).
Under `COc1ccccc1C(=O)NC(CCSC)C(=O)OCC(=O)NC(=O)NCc1ccco1` (configuration not stated) stands 28% (inactive); under `CCOC(=O)C1CCCN(C(=O)COC(=O)c2cc(=O)c3ccccc3o2)C1` (configuration not stated), 3.09% (inactive); under `Cc1ccccc1Cn1ccc(NC(=O)c2cnn3c2NC(c2ccccc2)CC3C(F)(F)F)n1` (configuration not stated), 2.9% (inactive).
With `O=C(c1c(Cl)nc2sccn12)N1CCCc2ccccc21`, the inhibition was 0.11% (inactive).
Turning to `CCOC(=O)C1CCCN(Cc2ccccc2F)C1` (configuration not stated), the inhibition is 30.6% (inactive).
Turning to `O=C(Nc1ccccc1N1CCOCC1)c1ccc(Cl)nc1`, the inhibition was 3.97% (inactive).
With `COc1ccc(-c2nc(CNS(=O)(=O)c3ccc(OC)c(OC)c3)cs2)cc1`, the inhibition is 8% (inactive).
Take `Cc1noc(C)c1S(=O)(=O)N1CCC(C(=O)N2CCN(Cc3ccc4c(c3)OCO4)CC2)CC1`: the inhibition was 7.72% (inactive).
`CCN1C(=O)/C(=C\c2cn(-c3ccccc3)nc2-c2cccnc2)SC1=S`: the inhibition was 28% (inactive).
In the case of `COc1ccc(Nc2nc(C)cc(C)c2C#N)cc1OC`, the inhibition was 6.96% (inactive).
Take `CCN(CC)Cc1cc(C(C)=O)ccc1O`: the inhibition is 3.73% (inactive).
Under `CCOC(=O)c1cc(-c2ccccc2)sc1NC(=S)Nc1cccc(C)n1` stands -0.25% (inactive).
Take `COc1ccccc1-n1c(=O)[nH]c2c(C(N)=O)nc(C3CCCCC3)nc21`: the inhibition was 13.4% (inactive).
For `Cc1ccc2cc(C#N)c(N3CCCC3)nc2c1C`, the inhibition is 8.05% (inactive).
Turning to `COC(=O)c1cnc(SCc2ccc(C)cc2)n1C`, the inhibition is 15.2% (inactive).
For the molecule `O=C(Cc1cccs1)NNC(=S)NC(=O)c1ccc(F)c(F)c1`, the inhibition is 6.92% (inactive).
With `O=C(NCc1ccccc1)N1CCN(c2ccc(Cl)c(Cl)c2)CC1`, the inhibition was 15.4% (inactive).
Under `N#Cc1ccsc1NC(=O)COC(=O)c1ccc2ccccc2c1` stands 5.46% (inactive).
Regarding `COc1cc(-c2noc(CCC(=O)Nc3cccnc3)n2)cc(OC)c1OC`, the inhibition is 33.6% (inactive).
To `COC(=O)c1cc2ccsc2n1Cc1nc(-c2cccc(Cl)c2)oc1C` belongs -2.86% (inactive); to `COc1ccc(-n2c(C)c3c(OC)cccc(=O)c3c2C)cc1`, -2.64% (inactive); to `N=c1sccn1CC(=O)NCCc1ccc(Cl)cc1`, 3.43% (inactive).
For the molecule `O=[N+]([O-])c1ccc(N2CCNCC2)cc1NCC1CCCO1` (configuration not stated), the inhibition is -1.91% (inactive).
To `CC(OC(=O)c1ccco1)C(=O)NC1CCCCC1` (configuration not stated) belongs 18.2% (inactive); to `CCc1ccc(N2CC(C(=O)Nc3cccnc3)CC2=O)cc1` (configuration not stated), 30.5% (inactive); to `O=C(Nc1nnc(-c2ccco2)s1)C1CC1`, 1.62% (inactive).
As for `Cc1nc2ccc(NC(=O)C3CCN(S(=O)(=O)c4cccs4)CC3)cc2s1`, the inhibition was 18.1% (inactive).
`CN1CCC(N(C)C(=S)NC(=O)C23CC4CC(CC(C4)C2)C3)CC1`: the inhibition was 28.5% (inactive).
